According to PMC4470473 (Cancer cell, 2015):
Like-named read-outs stand apart in the source and are kept apart here.

Key:
[1] = cited from earlier work
[2] = system: H460 lung cancer xenografts; experiment: H460 lung cancer xenografts
[3] = system: H460 cells; experiment: SRB growth assay, single agents and combination; format: cell-based, human
[4] = system: Bcl2; experiment: Bcl2 expression by IHC in tumor tissues of NSCLC patients; format: in vivo, human; conditions: 5 or 10mg/day orally, 28 days, 10 NSCLC patients
[5] = system: H460 cells; experiment: Bcl2 expression by Western blot after mTOR inhibition; format: cell-based, human; conditions: increasing concentrations, 24 hr
[6] = system: A549 cells; experiment: as above; format: cell-based, human; conditions: increasing concentrations, 24 hr
[7] = system: H460 cells; experiment: Autophagy; format: cell-based, human
[8] = target: Bfl-1/A1 (Homo sapiens, UniProt Q16548); experiment: Fluorescence polarization assay; format: binding
[9] = target: K17A Bcl2 mutant (Homo sapiens, UniProt P10415, K17A); experiment: Competitive fluorescence polarization assay; format: binding
[10] = target: Mcl-1 (Homo sapiens, UniProt Q07820); experiment: Fluorescence polarization assay; format: binding
[11] = system: normal small airway epithelial cell line (SAEC); experiment: Annexin-V/PI cell viability in normal cells; format: cell-based; conditions: 1μM, 72 hr
[12] = target: Purified recombinant Bcl2 protein (Homo sapiens, UniProt P10415); experiment: Cell-free Bcl2 conformational change, IP with anti-Bcl2/BH3 domain antibody; format: biochemical; conditions: cell-free system
[13] = target: D10A Bcl2 mutant (Homo sapiens, UniProt P10415, D10A); experiment: Competitive fluorescence polarization assay; format: binding
[14] = system: H460 or DMS53 cells expressing Bcl2 shRNA1; experiment: Rescue of Bcl2-silenced cells with exogenous WT or AAAA Bcl2; format: cell-based, human
[15] = system: NSCLC and SCLC cell lines; experiment: Cell growth; format: cell-based, human
[16] = system: Bcl2 ΔBH2; experiment: Fluorescence polarization assay; format: binding; conditions: deletion of BH2
[17] = target: D31A Bcl2 mutant (Homo sapiens, UniProt P10415, D31A); experiment: Competitive fluorescence polarization assay; format: binding
[18] = system: Plasmid pUC19 DNA; experiment: Electrophoretic mobility shift assay; format: binding
[19] = Single-dose MTD; format: in vivo
[20] = target: E13A Bcl2 mutant (Homo sapiens, UniProt P10415, E13A); experiment: Competitive fluorescence polarization assay; format: binding
[21] = system: Bcl2 ΔBH3; experiment: Fluorescence polarization assay; format: binding; conditions: deletion of BH3
[22] = target: Bcl-XL (Homo sapiens, UniProt Q07817); experiment: Fluorescence polarization assay; format: binding
[23] = system: H460 cells; experiment: Bcl2/IP3R interaction and Ca2+ release; format: cell-based, human; conditions: increasing concentrations, 24h
[24] = target: D10A/N11A/R12A/E13A (AAAA) Bcl2 mutant (Homo sapiens, UniProt P10415, D10A/E13A/N11A/R12A); experiment: Competitive fluorescence polarization assay; format: binding
[25] = system: mitochondria isolated from H1299 cells; experiment: Cyt c release from isolated mitochondria; format: biochemical, human; conditions: 1μM, 30 min, 30°C
[26] = target: N11A Bcl2 mutant (Homo sapiens, UniProt P10415, N11A); experiment: Competitive fluorescence polarization assay; format: binding
[27] = system: H1299 cells; experiment: Cell survival of H1299 cells overexpressing exogenous WT or mutant Bcl2; format: cell-based, human
[28] = target: M16A Bcl2 mutant (Homo sapiens, UniProt P10415, M16A); experiment: Competitive fluorescence polarization assay; format: binding
[29] = system: H460, H157, DMS53, DMS153 and H146 cells expressing Bcl2 shRNA; experiment: Apoptosis; format: cell-based, human; conditions: 1μM, 72 hr; Bcl2 shRNA1, shRNA2 or shRNA3
[30] = target: R12A Bcl2 mutant (Homo sapiens, UniProt P10415, R12A); experiment: Competitive fluorescence polarization assay; format: binding
[31] = system: Bcl2 ΔBH1; experiment: Fluorescence polarization assay; format: binding; conditions: deletion of BH1
[32] = Maximum tolerated dose, 12-day daily i.p. treatment; format: in vivo
[33] = system: SCLC PDX; experiment: Patient-derived xenograft; format: in vivo, Nu/Nu nude mice; conditions: 20mg/kg/d i.p., 2 weeks
[34] = target: Bcl2 (WT) (Homo sapiens, UniProt P10415); experiment: Competitive fluorescence polarization assay with fluorescent Bak peptide; format: binding
[35] = target: H20A Bcl2 mutant (Homo sapiens, UniProt P10415, H20A); experiment: Competitive fluorescence polarization assay; format: binding
[36] = target: Bcl2 ΔBH4 (Homo sapiens, UniProt P10415, DEL6-31); experiment: Fluorescence polarization assay; format: binding; conditions: BH4 domain deficient Bcl2
[37] = system: purified recombinant Bax; experiment: Cell-free Bax activation, IP with 6A7 Bax antibody; format: biochemical; conditions: for direct Bax activation: Bax without Bcl2
[38] = system: MEF cells; experiment: Apoptotic effect on WT and Bax knockout MEF cells; format: cell-based
[39] = exogenous AAAA Bcl2 mutant, 72 hr
[40] = 10, 20, 30mg/kg/d i.p., 14 days

Bcl-XL, sequence (Q07817 whole entry, species assumed): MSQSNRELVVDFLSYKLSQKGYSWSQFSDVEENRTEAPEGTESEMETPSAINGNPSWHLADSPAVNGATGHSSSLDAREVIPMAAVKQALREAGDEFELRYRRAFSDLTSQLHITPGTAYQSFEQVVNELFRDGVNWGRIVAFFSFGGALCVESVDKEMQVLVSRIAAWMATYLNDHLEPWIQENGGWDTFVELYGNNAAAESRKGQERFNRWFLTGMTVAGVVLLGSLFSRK
Bfl-1/A1, sequence (Q16548 whole entry): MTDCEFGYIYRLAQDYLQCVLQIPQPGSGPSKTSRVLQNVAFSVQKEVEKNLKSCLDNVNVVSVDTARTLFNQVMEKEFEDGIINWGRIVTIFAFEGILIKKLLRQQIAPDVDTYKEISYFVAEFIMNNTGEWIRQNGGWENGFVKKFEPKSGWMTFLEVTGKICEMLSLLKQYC
Mcl-1, sequence (Q07820 whole entry, species assumed): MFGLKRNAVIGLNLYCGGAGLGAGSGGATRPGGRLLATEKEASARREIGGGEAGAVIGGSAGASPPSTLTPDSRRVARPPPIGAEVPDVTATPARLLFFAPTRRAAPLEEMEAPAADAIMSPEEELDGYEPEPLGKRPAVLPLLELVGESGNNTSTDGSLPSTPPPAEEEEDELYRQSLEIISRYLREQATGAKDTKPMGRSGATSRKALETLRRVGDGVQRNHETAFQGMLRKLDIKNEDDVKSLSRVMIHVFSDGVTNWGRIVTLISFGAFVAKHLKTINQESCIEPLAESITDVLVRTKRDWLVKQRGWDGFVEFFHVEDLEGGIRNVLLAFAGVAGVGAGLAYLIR

CC1(C)CCC(c2ccc(Cl)cc2)=C(CN2CCN(c3ccc(C(=O)NS(=O)(=O)c4ccc(N[C@H](CCN5CCOCC5)CSc5ccccc5)c(S(=O)(=O)C(F)(F)F)c4)cc3)CC2)C1 [ABT-263]
thrombocytopenia ([1]; ref Schoenwaelder et al., 2011): can induce thrombocytopenia

CO[C@H]1C[C@@H]2CC[C@@H](C)[C@@](O)(O2)C(=O)C(=O)N2CCCC[C@H]2C(=O)O[C@H]([C@H](C)C[C@@H]2CC[C@@H](OCCO)[C@H](OC)C2)CC(=O)[C@H](C)/C=C(\C)[C@@H](O)[C@@H](OC)C(=O)[C@H](C)C[C@H](C)/C=C/C=C/C=C/1C [RAD001, everolimus]
apoptosis in tumor tissues ([2]; 1mg/kg/d, 14 days, alone): did not cause significant apoptosis | cell growth inhibition ([3]; 1nM): partially inhibited | Bcl2 expression in post-treatment vs baseline tumor tissues [4]: increased expression of Bcl2 | Bcl2 expression [5]: up-regulation of Bcl2 in a dose-dependent manner | Bcl2 expression [6]: up-regulation of Bcl2 in a dose-dependent manner

CCN(CC)C[C@@H](O)CNc1ccc(NC[C@H]2CO2)c2c1C(=O)c1ccccc1C2=O [BDA-366]
LC3-II levels ([7]; 1 μM, 24h): Increased levels of LC3-II | percentage of GFP-LC3vac cells ([7]; vs DMSO control): significantly increases | binding [8]: did not bind | Ki [9]: 4.2 ± 0.45 nM | binding [10]: did not bind | sensitivity of normal cells [11]: less sensitive | Bcl2 conformational change (BH3 domain exposure) [12]: enhanced the ability of the Bcl2/BH3 domain-specific antibody to bind Bcl2 | Ki [13]: 4.8 ± 0.41 nM | sensitivity of cells [14, 39]: not to BDA-366 | sensitivity of cells ([14]; exogenous WT Bcl2, 72 hr): restored sensitivity | body weight ([2]; 30mg/kg): Slight weight loss | apoptosis in tumor tissues (active caspase 3, TUNEL) [2, 40]: dose-dependent apoptosis induction | tumor growth [2, 40]: dose-dependent repression | histopathology of normal tissues ([2]; 10–30mg/kg/d): no evidence of normal tissue toxicities | Bcl2 BH3 domain exposure in tumor tissues (QD-IHF) ([2]; 14 days): dose-dependent exposure of the Bcl2 BH3 domain | active Bax (6A7) in tumor tissues (QD-IHF) ([2]; 14 days): increased level of 6A7 binding to Bax | kidney (BUN) and liver (ALT and AST) function ([2]; up to 30mg/kg/d, 14 days): in the normal range | neutrophils, lymphocytes, RBC and platelets in blood ([2]; up to 30mg/kg/d, 14 days): no decreases | sensitivity of cell lines ([15]; higher Bcl2: H157, Calu-1, H358, H460, H1975, DMS53, DMS153, H146, H69): more sensitive | sensitivity of cell lines ([15]; lower or undetectable Bcl2: A549, H1299, DMS114, H128): less sensitive | effect of domain deletion on binding [16]: did not significantly affect | cell growth inhibition ([3]; 100nM): partially inhibited | Ki [17]: 3.7 ± 0.91 nM | DNA binding (mobility shift) [18]: but not BDA-366 can bind to pUC19 DNA | maximum therapeutic dose for continuous treatment ([19]; 10% of single dose MTD): 30~40 mg/kg | single dose MTD ([19]; mouse, in vivo): 300 to 400 mg/kg | toxicity ([19]; single dose 300mg/kg i.p.): did not cause weight loss or other toxicities | ALT and AST ([19]; single dose 400mg/kg): significantly enhanced | pathological analysis of organs ([19]; single dose 400mg/kg): microsteatosis in the liver and atrophic white pulp in the spleen | time to death ([19]; single dose 400mg/kg): 4 days | Ki [20]: 4.5 ± 0.71 nM | effect of domain deletion on binding [21]: did not significantly affect | binding [22]: did not bind | Bcl2/IP3R binding [23]: reduced Bcl2/IP3R binding | Ca2+ release [23]: increased Ca^2+ release | Ki [24]: 598.64 ± 0.12 nM | Cyt c release ([25]; WT Bcl2 mitochondria): induced Cyt c release | Cyt c release ([25]; ΔBH3 and vector-only control mitochondria): not from ΔBH3 and vector-only control cells | Ki [26]: 4.1 ± 0.67 nM | cell survival ([27]; compound Bcl2 AAAA mutant): significantly prolonged cell survival | sensitivity of cells ([27]; exogenous WT or single site Bcl2 mutants): enhanced sensitivity | Ki [28]: 3.9 ± 0.31 nM | sensitivity after depletion of endogenous Bcl2 [29]: significantly reduced sensitivity | Ki [30]: 4.3 ± 0.54 nM | effect of domain deletion on binding [31]: did not significantly affect | time to death (uniformly lethal) ([32]; 40mg/kg/d i.p.): ≤ 8 days | time to death (uniformly lethal) ([32]; 50mg/kg/d i.p.): up to 12 days | lethality ([32]; 10 to 30mg/kg/d i.p., up to 12 days): no death | tumor growth [33]: potently suppressed the growth | Ki [34]: 3.3 ± 0.73 nM | Ki [35]: 3.8 ± 0.47 nM | binding [36]: failed to bind | direct Bax activation [37]: is not a direct Bax activator | Bcl2-dependent Bax activation ([37]; Bcl2 pre-treated with compound 1 hr, then Bax 2 hr): enhanced the ability of Bax to bind to 6A7 antibody | sensitivity of Bax deficient vs WT MEF cells [38]: significantly resistant

COc1cc([C@@H]2c3cc4c(cc3[C@@H](O[C@@H]3O[C@@H]5CO[C@@H](C)O[C@H]5[C@H](O)[C@H]3O)[C@H]3COC(=O)[C@H]23)OCO4)cc(OC)c1O [VP-16]
Bcl2 conformational change (BH3 domain exposure) [12]: not a chemotherapeutic agent (i.e. VP-16 or cisplatin) can directly induce Bcl2 conformational change

N.N.[Cl][Pt][Cl] [cisplatin, reference compound]
Bcl2 conformational change (BH3 domain exposure) [12]: not a chemotherapeutic agent (i.e. VP-16 or cisplatin) can directly induce Bcl2 conformational change | DNA binding (mobility shift) [18]: can bind to pUC19 DNA

CN(C)CC[C@H](CSc1ccccc1)Nc1ccc(S(=O)(=O)NC(=O)c2ccc(N3CCN(Cc4ccccc4-c4ccc(Cl)cc4)CC3)cc2)cc1[N+](=O)[O-] [ABT-737]
thrombocytopenia ([1]; ref Schoenwaelder et al., 2011): can induce thrombocytopenia

CC1(C)CCC(CN2CCN(c3ccc(C(=O)NS(=O)(=O)c4ccc(NCC5CCOCC5)c([N+](=O)[O-])c4)c(Oc4cnc5[nH]ccc5c4)c3)CC2)=C(c2ccc(Cl)cc2)C1 [ABT-199, reference compound]
sensitivity of cells [14, 39]: restored the sensitivity | sensitivity of cells ([14]; exogenous WT Bcl2, 72 hr): restored sensitivity | thrombocytopenia ([1]; in vivo, ref Souers et al., 2013): did not cause thrombocytopenia

BAM7 [reference compound]
direct Bax activation [37]: can directly activate Bax
